Measured values published in patent US8975289B2, “Benzyl aralkyl ether compounds, method for preparing same, intermediate compounds, use of said compounds, method for treatment and/or prevention, pharmaceutical composition and medicament containing same” (priority 2009, dated 2015).
≈ marks a conversion by molar mass, not a printed value.

Key:
Format in all cases: cell-based
Candida glabrata 2001 = experiment: Broth microdilution MIC (M27-A2), yeast, strain XVI; settings: Nakaseomyces glabratus; strain XVI 2001, 48 hours incubation; read-out: MIC
Procedure: For the experiments of the present invention (i) yeast strains obtained from clinical isolates and laboratory isolates, and (ii) bacterial strains obtained from laboratory isolates were used, as described in Table 5 as follows. The yeast strains were grown in culture medium Sabouraud Dextrose Agar maintained at a temperature of 35° C. for 48 hours. […] The compounds were dissolved in dimethyl sulfoxide (DMSO) to match the final concentration of the compound equal to or less than 1%. The methodology used to test the sensitivity of the agent was broth microdilution according to the method described in Standard M27-A2 (Reference method for broth dilution tests to determine the sensitivity of yeasts to antifungal therapy-second edition, NCCLS, volume 22 number 15, USA, 2002) as follows. […] Then the suspensions were diluted in culture medium RPMI-1640 (buffered with MOPS 0.165 mol/l) at a final concentration of 50 to 2500 CFU/mL. The diluted suspensions were inoculated in duplicate in a 96-well plate. The procedure was performed in a laminar flow. […] The incubation of fungi with these compounds was carried out for 48 hours at temperature of 30 to 35° C. […] We have agreed in this experiment that the turbid medium is the result of microbial growth and the presence of deposit and a clear medium represents the absence of microbial growth. The minimum inhibitory concentration (MIC) was defined as the lowest tested drug concentration that prevents any degree of […] growth.

Microsporum gypseum 24 = experiment: Broth microdilution MIC (M38-A), filamentous fungi, strain III; settings: Nannizzia gypsea
Procedure: (§1) For the experiments of the present invention, the dermatophyte-type fungi strains that were obtained from clinical isolates and laboratory isolates, as described in Table 2 as follows, were used:
(§2) The fungal strains were grown on agar potato medium in a sloping chute at a temperature of 30° C. for a period of 7 to 15 days.
(§3) For the experiments, the compound 1-[2-(2,4-dichlorophenyl)-2-{[4-(trifluoromethyl)benzyl]oxy}ethyl]-1H-imidazole (BL-123) in the form of its nitrate salt and miconazole nitrate were used. Both compounds were dissolved in dimethyl sulfoxide (DMSO) to match the final concentration of the compound equal to or less than 1%.
(§4) The methodology used to test the sensitivity of the agent was of broth microdilution according to the method described in Standard M38-A (Reference method for broth dilution tests for determining the sensitivity to antifungal therapy for filamentous fungi; NCCLS, volume 22 No. 16, USA, 2008) as follows.
(§5) The fungus was cultivated pursuant to item 4.1. To the tubes wherein the fungi were grown, 5 mL of saline solution were added in order to extract the fungi from the agar surface. Then, this homogeneous suspension was transferred to a new tube and the colony-forming units (CFUs) were quantified according to counting methods: (i) in Sabouraud dextrose agar plates and (ii) in a Neubauer chamber.
(§6) Then, the fungi strains listed in Table 2 were inoculated in duplicate in a 96-well plate. There were used inocula of from 2 to 6×10^3 CFU/mL of fungi, per well, in a total volume of 0.2 mL of RPMI-1640 (containing L-glutamine and without bicarbonate) buffered at pH 7.0 with MOPS (acid 3-(N-morpholine) 15 propanesulfonic). The procedure was performed in a laminar flow.
(§7) The compounds to be tested were added in a serial dilution, in duplicate, in final concentrations of 16 μg/mL; 8 μg/mL; 4 μg/mL; 2 μg/mL; 1 μg/mL; 0.5 μg/mL; 0.25 μg/mL; 0.125 μg/mL; 0.0625 μg/mL; or 0.03125 μg/mL in culture medium present in each well.
(§8) The incubation of fungi with these compounds was performed by 4, 5, 6 and 7 days at temperatures from 30 to 35° C.
(§9) The fungi quantification was carried out with the growth of fungi in each well being compared to the growth occurred in the negative control by means of a mirror reading. The negative control is represented by fungi grown in culture medium in the absence of the tested compounds. The methodology of this comparison is the numerical rating to which the microdilution well was submitted. […]

[1] = test system: Staphylococcus epidermidis 12228; experiment: Broth microdilution MIC (M7-A6), bacteria, strain XVII; settings: Staphylococcus epidermidis; strain XVII 12228, 24 hours incubation; read-out: MIC
Procedure: For the experiments of the present invention (i) yeast strains obtained from clinical isolates and laboratory isolates, and (ii) bacterial strains obtained from laboratory isolates were used, as described in Table 5 as follows. […] The compounds were dissolved in dimethyl sulfoxide (DMSO) to match the final concentration of the compound equal to or less than 1%. The methodology used to test the sensitivity of the agent was broth microdilution according to the method described in Standard M7-A6 (Methodology of sensitivity tests to antimicrobial agents by dilution for bacteria with aerobic growth-6th Edition: NCCLS, volume 23, No. 2, USA, 2003), as follows. […] Then the suspensions were diluted in Mueller Hinton culture medium to a final concentration of 5×10^4CFU/mL. The diluted suspensions were inoculated in 0.1 mL in duplicates in […] plates. The procedure was performed in a laminar flow. […] Incubation of fungi with these compounds was carried out for 24 hours at a temperature of 30 to 35° C. […] We have agreed in this experiment that the turbid medium is the result of microbial growth and the presence of deposit and a clear medium represents the absence of microbial growth. The minimum inhibitory concentration (MIC) was defined as the lowest tested drug concentration that prevents any degree of bacterial growth.

[2] = test system: Trichophyton rubrum 40005; experiment: Broth microdilution MIC (M38-A), filamentous fungi, strain XI
Procedure: as §1, §2, §3, §4, §5, §6, §7, §8, §9

[3] = test system: Trichophyton rubrum 28188; experiment: Broth microdilution MIC (M38-A), filamentous fungi, strain V
Procedure: as §1, §2, §3, §4, §5, §6, §7, §8, §9

Trichophyton rubrum 455 = experiment: Broth microdilution MIC (M38-A), filamentous fungi, strain VIII; settings: for MIC: Trichophyton rubrum; for Resistance or sensitivity of the strain to the agent (in words): clinical isolate strain VIII
Procedure: as §1, §2, §3, §4, §5, §6, §7, §8
The fungi quantification was carried out with the growth of fungi in each well being compared to the growth occurred in the negative control by means of a mirror reading. The negative control is represented by fungi grown in culture medium in the absence of the tested compounds. The methodology of this comparison is the numerical rating to which the microdilution well was submitted. In this methodology, value 4 corresponds to no reduction of growth, value 3 corresponds to a slight reduction in growth or approximately 75% of the growth of the negative control, value 2 corresponds to a standout reduction in growth or approximately 50% of growth of negative control; value 1 corresponds to a slight growth or approximately 25% of the growth of the negative control, and value 0 corresponds to optically clear or absence of growth.
In this experiment, the minimum inhibitory concentration (MIC) is considered as the lowest concentration of the agent capable of inhibiting at least 80% of the growth of colony-forming units (CFUs).

[4] = test system: Trichophyton mentagrophytes 2; experiment: Broth microdilution MIC (M38-A), filamentous fungi, strain II
Procedure: as §1, §2, §3, §4, §5, §6, §7, §8, §9

[5] = 96 h, strain III 24, reading Day 4, average of four experiments
[6] = 168 h, strain III 24, reading Day 7, average of four experiments
[7] = 96 h, strain XI 40005, reading Day 4, average of four experiments
[8] = 168 h, strain XI 40005, reading Day 7, average of four experiments
[9] = 96 h, strain V 28188, reading Day 4, average of four experiments
[10] = 168 h, strain V 28188, reading Day 7, average of four experiments
[11] = 96 h, strain VIII 455, reading Day 4, average of four experiments
[12] = 168 h, strain VIII 455, reading Day 7, average of four experiments
[13] = 96 h, strain II 2, reading Day 4, average of four experiments
[14] = 168 h, strain II 2, reading Day 7, average of four experiments

## FC(F)(F)c1ccc(COC(Cn2ccnc2)c2ccc(Cl)cc2Cl)cc1 (centres unmarked) [BL-123, 1-[2-(2,4-dichlorophenyl)-2-{[4-(trifluoromethyl)benzyl]oxy}ethyl]-1H-imidazole]
Candida glabrata 2001
  MIC: 0.125 µg/mL (≈ 0.301 µM)
Microsporum gypseum 24; [5]
  MIC: 0.25 µg/mL (≈ 0.602 µM)
Microsporum gypseum 24; [6]
  MIC: 0.25 µg/mL (≈ 0.602 µM)
[1]
  MIC: 4 µg/mL (≈ 9.63 µM)
[2]; [7]
  MIC: 0.25 µg/mL (≈ 0.602 µM)
[2]; [8]
  MIC: 0.5 µg/mL (≈ 1.2 µM)
[3]; [9]
  MIC: 0.03 µg/mL (≈ 0.0722 µM)
[3]; [10]
  MIC: 0.03 µg/mL (≈ 0.0722 µM)
Trichophyton rubrum 455; [11]
  MIC: 4 µg/mL (≈ 9.63 µM)
Trichophyton rubrum 455; [12]
  MIC: 8 µg/mL (≈ 19.3 µM)
Trichophyton rubrum 455
  Resistance or sensitivity of the strain to the agent (in words): sensitive
[4]; [13]
  MIC: 4 µg/mL (≈ 9.63 µM)
[4]; [14]
  MIC: 4 µg/mL (≈ 9.63 µM)

## Clc1ccc(COC(Cn2ccnc2)c2ccc(Cl)cc2Cl)c(Cl)c1 (centres unmarked) [Miconazole, miconazole, reference compound]
Candida glabrata 2001
  MIC: 0.125 µg/mL (≈ 0.3 µM)
Microsporum gypseum 24; [5]
  MIC: 0.05 µg/mL (≈ 0.12 µM)
Microsporum gypseum 24; [6]
  MIC: 0.05 µg/mL (≈ 0.12 µM)
[1]
  MIC: 2 µg/mL (≈ 4.81 µM)
[2]; [7]
  MIC: 0.5 µg/mL (≈ 1.2 µM)
[2]; [8]
  MIC: 1 µg/mL (≈ 2.4 µM)
[3]; [9]
  MIC: 0.03 µg/mL (≈ 0.0721 µM)
[3]; [10]
  MIC: 0.06 µg/mL (≈ 0.144 µM)
Trichophyton rubrum 455; [11]
  MIC: > 16 µg/mL
Trichophyton rubrum 455; [12]
  MIC: > 16 µg/mL
Trichophyton rubrum 455
  Resistance or sensitivity of the strain to the agent (in words): resistant
[4]; [13]
  MIC: 1 µg/mL (≈ 2.4 µM)
[4]; [14]
  MIC: 1 µg/mL (≈ 2.4 µM)
